Assay results taken from the supplement of paper PMC10307832.

What was measured:
Test in all cases: relative viability (nuclei count vs DMSO), 5 days (fraction); higher = more cells survive
ABC-1 = tested on: ABC-1
Procedure, shortened: (§1)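 Each reported value is a median over duplicate plates. It expresses relative viability: treated-well nuclei count divided by vehicle-well nuclei count. Lung cancer cell lines in 1536-well plates were dosed by pin tool a day after seeding, alone with one drug or with a fixed anchor-drug dose plus five library-drug doses (not always all listed) in √10 steps, and nuclei were counted after 5 days.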

COR-L23 = tested on: COR-L23
Procedure, shortened: as §1

ChaGo-K-1 = tested on: ChaGo-K-1
Procedure, shortened: as §1

EPLC-272H = tested on: EPLC-272H
Procedure, shortened: as §1

HCC-15 = tested on: HCC-15
Procedure, shortened: as §1

HCC-366 = tested on: HCC-366
Procedure, shortened: as §1

HCC-44 = tested on: HCC-44
Procedure, shortened: as §1

HCC-827 = tested on: HCC-827
Procedure, shortened: as §1

LCLC-103H = tested on: LCLC-103H
Procedure, shortened: as §1

NCI-H1355 = tested on: NCI-H1355
Procedure, shortened: as §1

NCI-H1734 = tested on: NCI-H1734
Procedure, shortened: as §1

NCI-H1793 = tested on: NCI-H1793
Procedure, shortened: as §1

NCI-H1944 = tested on: NCI-H1944
Procedure, shortened: as §1

NCI-H2009 = tested on: NCI-H2009
Procedure, shortened: as §1

NCI-H2023 = tested on: NCI-H2023
Procedure, shortened: as §1

NCI-H2085 = tested on: NCI-H2085
Procedure, shortened: as §1

NCI-H2228 = tested on: NCI-H2228
Procedure, shortened: as §1

NCI-H2347 = tested on: NCI-H2347
Procedure, shortened: as §1

NCI-H2405 = tested on: NCI-H2405
Procedure, shortened: as §1

NCI-H3122 = tested on: NCI-H3122
Procedure, shortened: as §1

PC-14 = tested on: PC-14
Procedure, shortened: as §1

SW 1573 = tested on: SW 1573
Procedure, shortened: as §1

`CCNC(=O)c1noc(-c2cc(C(C)C)c(O)cc2O)c1-c1ccc(CN2CCOCC2)cc1` [Luminespib] + CC(=O)c1c(C)c2cnc(Nc3ccc(N4CCNCC4)cn3)nc2n(C2CCCC2)c1=O [Palbociclib] (partner 0.5 µM) was tested, and the relative viability (ABC-1; first compound 0.002 µM) was 0.925, the relative viability (ABC-1; first compound 0.006325 µM) was 0.876 and the relative viability (ABC-1; first compound 0.02 µM) was 0.494. The relative viability (ABC-1; first compound 0.06325 µM) was 0.286, the relative viability (ABC-1; first compound 0.2 µM) was 0.245 and the relative viability (COR-L23; first compound 0.002 µM) was 0.343. It also gave a relative viability (COR-L23; first compound 0.006325 µM) of 0.274, a relative viability (COR-L23; first compound 0.02 µM) of 0.26 and a relative viability (COR-L23; first compound 0.06325 µM) of 0.0657. The relative viability (COR-L23; first compound 0.2 µM) was 0.071, the relative viability (ChaGo-K-1; first compound 0.002 µM) was 0.813 and the relative viability (ChaGo-K-1; first compound 0.006325 µM) was 0.888. For the same compound, the relative viability (ChaGo-K-1; first compound 0.02 µM) was 0.963, the relative viability (ChaGo-K-1; first compound 0.06325 µM) was 0.925 and the relative viability (ChaGo-K-1; first compound 0.2 µM) was 0.82. It also gave a relative viability (EPLC-272H; first compound 0.002 µM) of 0.285, a relative viability (EPLC-272H; first compound 0.006325 µM) of 0.317 and a relative viability (EPLC-272H; first compound 0.02 µM) of 0.284. The relative viability (EPLC-272H; first compound 0.06325 µM) was 0.311, the relative viability (EPLC-272H; first compound 0.2 µM) was 0.0905 and the relative viability (HCC-15; first compound 0.002 µM) was 0.815. For the same compound, the relative viability (HCC-15; first compound 0.006325 µM) was 0.776, the relative viability (HCC-15; first compound 0.02 µM) was 0.875 and the relative viability (HCC-15; first compound 0.06325 µM) was 0.321. The relative viability (HCC-15; first compound 0.2 µM) was 0.127, the relative viability (HCC-366; first compound 0.002 µM) was 0.363 and the relative viability (HCC-366; first compound 0.006325 µM) was 0.358. The relative viability (HCC-366; first compound 0.02 µM) was 0.411, the relative viability (HCC-366; first compound 0.06325 µM) was 0.0279 and the relative viability (HCC-366; first compound 0.2 µM) was 0.0276. The relative viability (HCC-44; first compound 0.002 µM) was 0.942, the relative viability (HCC-44; first compound 0.006325 µM) was 0.998 and the relative viability (HCC-44; first compound 0.02 µM) was 1.09. For the same compound, the relative viability (HCC-44; first compound 0.06325 µM) was 0.986, the relative viability (HCC-44; first compound 0.2 µM) was 0.858 and the relative viability (HCC-827; first compound 0.002 µM) was 0.492. It also gave a relative viability (HCC-827; first compound 0.006325 µM) of 0.473, a relative viability (HCC-827; first compound 0.02 µM) of 0.326 and a relative viability (HCC-827; first compound 0.06325 µM) of 0.178. For the same compound, the relative viability (HCC-827; first compound 0.2 µM) was 0.148, the relative viability (LCLC-103H; first compound 0.002 µM) was 0.481 and the relative viability (LCLC-103H; first compound 0.006325 µM) was 0.454. It also gave a relative viability (LCLC-103H; first compound 0.02 µM) of 0.447, a relative viability (LCLC-103H; first compound 0.06325 µM) of 0.469 and a relative viability (LCLC-103H; first compound 0.2 µM) of 0.468. It also gave a relative viability (NCI-H1355; first compound 0.002 µM) of 0.415, a relative viability (NCI-H1355; first compound 0.006325 µM) of 0.383 and a relative viability (NCI-H1355; first compound 0.02 µM) of 0.257. It also gave a relative viability (NCI-H1355; first compound 0.06325 µM) of 0.367, a relative viability (NCI-H1355; first compound 0.2 µM) of 0.222 and a relative viability (NCI-H1734; first compound 0.002 µM) of 0.359. It also gave a relative viability (NCI-H1734; first compound 0.006325 µM) of 0.389, a relative viability (NCI-H1734; first compound 0.02 µM) of 0.334 and a relative viability (NCI-H1734; first compound 0.06325 µM) of 0.204. The relative viability (NCI-H1734; first compound 0.2 µM) was 0.144, the relative viability (NCI-H1793; first compound 0.002 µM) was 0.306 and the relative viability (NCI-H1793; first compound 0.006325 µM) was 0.334. It also gave a relative viability (NCI-H1793; first compound 0.02 µM) of 0.211, a relative viability (NCI-H1793; first compound 0.06325 µM) of 0.151 and a relative viability (NCI-H1793; first compound 0.2 µM) of 0.165. The relative viability (NCI-H1944; first compound 0.002 µM) was 0.309, the relative viability (NCI-H1944; first compound 0.006325 µM) was 0.389 and the relative viability (NCI-H1944; first compound 0.02 µM) was 0.249. The relative viability (NCI-H1944; first compound 0.06325 µM) was 0.316, the relative viability (NCI-H1944; first compound 0.2 µM) was 0.303 and the relative viability (NCI-H2009; first compound 0.002 µM) was 0.287. For the same compound, the relative viability (NCI-H2009; first compound 0.006325 µM) was 0.172, the relative viability (NCI-H2009; first compound 0.02 µM) was 0.113 and the relative viability (NCI-H2009; first compound 0.06325 µM) was 0.0496. The relative viability (NCI-H2009; first compound 0.2 µM) was 0.0514, the relative viability (NCI-H2023; first compound 0.002 µM) was 0.423 and the relative viability (NCI-H2023; first compound 0.006325 µM) was 0.364. For the same compound, the relative viability (NCI-H2023; first compound 0.02 µM) was 0.309, the relative viability (NCI-H2023; first compound 0.06325 µM) was 0.0518 and the relative viability (NCI-H2023; first compound 0.2 µM) was 0.0463. For the same compound, the relative viability (NCI-H2085; first compound 0.002 µM) was 0.447, the relative viability (NCI-H2085; first compound 0.006325 µM) was 0.434 and the relative viability (NCI-H2085; first compound 0.02 µM) was 0.453. The relative viability (NCI-H2085; first compound 0.06325 µM) was 0.388, the relative viability (NCI-H2085; first compound 0.2 µM) was 0.263 and the relative viability (NCI-H2228; first compound 0.002 µM) was 0.752. It also gave a relative viability (NCI-H2228; first compound 0.006325 µM) of 0.616, a relative viability (NCI-H2228; first compound 0.02 µM) of 0.121 and a relative viability (NCI-H2228; first compound 0.06325 µM) of 0.119. For the same compound, the relative viability (NCI-H2228; first compound 0.2 µM) was 0.104, the relative viability (NCI-H2347; first compound 0.002 µM) was 0.37 and the relative viability (NCI-H2347; first compound 0.006325 µM) was 0.408. The relative viability (NCI-H2347; first compound 0.02 µM) was 0.38, the relative viability (NCI-H2347; first compound 0.06325 µM) was 0.384 and the relative viability (NCI-H2347; first compound 0.2 µM) was 0.301. It also gave a relative viability (NCI-H2405; first compound 0.002 µM) of 0.557, a relative viability (NCI-H2405; first compound 0.02 µM) of 0.417 and a relative viability (NCI-H2405; first compound 0.06325 µM) of 0.172. The relative viability (NCI-H2405; first compound 0.2 µM) was 0.164, the relative viability (NCI-H3122; first compound 0.002 µM) was 0.173 and the relative viability (NCI-H3122; first compound 0.006325 µM) was 0.233. For the same compound, the relative viability (NCI-H3122; first compound 0.02 µM) was 0.173, the relative viability (NCI-H3122; first compound 0.06325 µM) was 0.197 and the relative viability (NCI-H3122; first compound 0.2 µM) was 0.196. It also gave a relative viability (PC-14; first compound 0.002 µM) of 0.541, a relative viability (PC-14; first compound 0.006325 µM) of 0.367 and a relative viability (PC-14; first compound 0.02 µM) of 0.315. For the same compound, the relative viability (PC-14; first compound 0.06325 µM) was 0.0535, the relative viability (PC-14; first compound 0.2 µM) was 0.0542 and the relative viability (SW 1573; first compound 0.002 µM) was 0.426. The relative viability (SW 1573; first compound 0.006325 µM) was 0.344, the relative viability (SW 1573; first compound 0.02 µM) was 0.396 and the relative viability (SW 1573; first compound 0.06325 µM) was 0.101. For the same compound, the relative viability (SW 1573; first compound 0.2 µM) was 0.0763.
